Data from US12264146B2, “Rho kinase inhibitor, method for preparing same and uses thereof” (BEIJING INCREASE INNOVATIVE DRUG CO., LTD., priority 2018, dated 2025).
Structures can show the parent of a compound that is named as a salt.

Experiments:
[1] = test system: subarachnoid hemorrhage in rats; test: Rat subarachnoid hemorrhage (SAH) model by intravascular puncture, Sugawara bleeding score; type: in vivo; parameters: dose or concentration left out as unconfirmed; conditions: tail vein injection, 2 administrations 4 h apart, scored 24 h after first administration (Sugawara)
Description: Rat subarachnoid hemorrhage (SAH) model was built by intravascular puncture. After being weighed, the rats were anesthetized with sodium pentobarbital (50 mg/kg) or chloral hydrate (300 mg/kg) by intraperitoneal injection, then fixed on their back and maintained the animal's body temperature at about 37° C. The rats' neck skin was shaved for surgery, a median incision was made on the neck, and muscle and fascia were separated along the inner edge of stemocleidomastoid muscle to expose the main and bifurcation of right common carotid artery, and expose the external and internal carotid arteries.
The bifurcation of internal carotid artery was gently clamped with ophthalmic forceps, the bifurcation of the internal carotid artery and the external carotid artery was pierced with a 6-gauge syringe needle, the ophthalmic forceps holding the bifurcation of internal carotid artery was slightly loosen, and No. 3 fishing thread was used to perform a puncture at the bleeding point, the ophthalmic forceps on the internal carotid artery was loosen, and the fishing thread was inserted into skull. […] After staying for 15 seconds, the thread for puncture was completely removed, and the skin was sutured after compression to stop the bleeding. 1.6 million units of penicillin potassium (400,000 units/ml, 0.2 ml/rat) was intramuscularly injected to avoid wound infection. For the sham operation group, the thread for puncture was removed when resistance was felt without piercing the bifurcation of the anterior cerebral artery and the middle cerebral artery, while the remaining operation steps were the same as the model group. After the operation, the rats were transferred to a thermal insulation blanket, then transferred to a squirrel cage when they were basically awake, and kept normally.
In this test experimental, 32 groups were set, i.e., Groups 1 to 32, in which Group 1 was a normal control group (healthy rats), Group 2 was a sham operation control group (not modeling by puncture), Group 3 was a model control group (modeling by puncture, administrated with normal saline), Group 4 was a positive control group (modeling by puncture, administrated with fasudil hydrochloride injection), and Groups 5 to 32 were test groups of the compounds of the present application (modeling by puncture, respectively administrated with the compounds of the present application); and there were 8 animals (purchased from SPF (Beijing) Biotechnology Co., Ltd., the certificate number was SYXK (Beijing) 2016-0002) in each group, half of them were female and half of them were male. The animals were subjected to fasting for 12 to 18 hours without prohibition of drinking water before modeling. […] The rats were euthanized 24 h after the first administration, and the brains were taken. According to Sugawara's method (Reference: Sugawara T, Ayer R, Jadhav V, et al. A new grading system evaluating bleeding scale in filament perforation subarachnoid hemorrhage rat model. J Neurosci Methods. 2008, 167(2):327-34), the subarachnoid hemorrhage amounts were scored, and the scoring results were as follows: […]

prostacyclin (PGI2) = test: Expression of prostacyclin (PGI2) in EA.Hy926 endothelial cells, ELISA kit; type: cell-based; conditions: 24 h; for expression of prostacyclin in endothelial cells: Detection result of test compound at low dose (0.4 μM) / expression of prostacyclin in endothelial cells: Detection result of test compound at medium dose (2 μM) / expression of prostacyclin in endothelial cells: Detection result of test compound at high dose (10 μM): EA.Hy926 cell supernatant
Description: (§1) Commercially available cytokine kits were used to detect the effects of the compounds of the present application on vascular endothelium-derived contracting factor endothelin, vascular endothelium-derived relaxing factor endothelial nitric oxide synthase, nitric oxide, and prostacyclin factor. The detection was performed according to the kit instructions. When testing the effect of the compound of the present application on cytokines, a normal control group, a fasudil hydrochloride group, and high-, medium- and low-dose groups of the compounds of the present application were set up for testing. The fasudil hydrochloride used in this test example was purchased from Beijing Sihuan Pharmaceutical Co., Ltd., with the SFDA approval number of H20173349. The EA.Hy926 cells used in this test example were purchased from Suzhou Beina Chuanglian Biotechnology Co., Ltd.
EA.Hy926 cells were taken and inoculated in a 96-well plate at 5×10^4 cells/mL, 100 μL per well, and cultured adherently for 24 hours, then the test compound prepared in DMEM medium was added, and an equal volume of DMEM medium was added in the normal control group, then the cells were cultured at 37° C. for 24 hours, and then the cell supernatant was taken and placed in an EP tube, and centrifuged for 15 min at 3000 r/min and 15° C. The resulting supernatant was transferred to a new EP tube, and then the detection was performed according to the instruction of ELISA kit (purchased from Wuhan Elabscience Biotechnology Co., Ltd., Cat. No. E-EL-0022c), and the detection results were shown in Table 3.

endothelin (ET-1) = test: Expression of endothelin (ET-1) in EA.Hy926 endothelial cells, detection kit; type: cell-based, human; conditions: 48 h; for expression of endothelin in endothelial cells: Detection result of test compound at low dose (0.4 μM) / expression of endothelin in endothelial cells: Detection result of test compound at medium dose (2 μM) / expression of endothelin in endothelial cells: Detection result of test compound at high dose (10 μM): EA.Hy926 cell supernatant
Description: as §1
EA.Hy926 cells were taken and inoculated in a 96-well plate at 5×10^4 cells/mL, 100 μL per well, and cultured adherently for 24 hours, then the test compound prepared in DMEM medium was added, and an equal volume of DMEM medium was added in the normal control group, then the cells were cultured at 37° C. for 48 hours, and then the cell supernatant was taken and placed in an EP tube, and centrifuged at 3000 r/min, 4° C. for 15 min. The resulting cell supernatant was transferred to a new EP tube, diluted twice with culture medium, and detected according to the instruction of the human endothelin detection kit (purchased from Wuhan Boster Biological Engineering Co., Ltd., batch number 59113731009), and the detection results were shown in Table 2.

Compound: C[C@@H]1CNCCCN1S(=O)(=O)c1cccc2c(O)nccc12 [Compound R-YK1601, (R)-5-((2-methyl-1,4-diazacycloheptan-1-yl)sulfonyl)isoquinolin-1-ol]
- Cerebral hemorrhage volume score (x ± s) [1]: 11.75 ± 2.05
- expression of prostacyclin in endothelial cells: Detection result of test compound at low dose (0.4 μM) (prostacyclin (PGI2)): 253.00 ± 5.55 pg/mL
- expression of prostacyclin in endothelial cells: Detection result of test compound at medium dose (2 μM) (prostacyclin (PGI2)): 253.52 ± 55.60 pg/mL
- expression of prostacyclin in endothelial cells: Detection result of test compound at high dose (10 μM) (prostacyclin (PGI2)): 227.01 ± 16.23 pg/mL
- expression of endothelin in endothelial cells: Detection result of test compound at low dose (0.4 μM) (endothelin (ET-1)): 253.46 ± 19.86 pg/mL
- expression of endothelin in endothelial cells: Detection result of test compound at medium dose (2 μM) (endothelin (ET-1)): 266.61 ± 20.77 pg/mL
- expression of endothelin in endothelial cells: Detection result of test compound at high dose (10 μM) (endothelin (ET-1)): 243.07 ± 17.37 pg/mL

Compound: COc1nccc2c(S(=O)(=O)N3CCCNC[C@H]3C)cccc12 [Compound R-YK1602, (R)-1-methoxy-5-((2-methyl-1,4-diazacycloheptan-1-yl)sulfonyl)isoquinoline]
- Cerebral hemorrhage volume score (x ± s) [1]: 11.95 ± 2.04
- expression of prostacyclin in endothelial cells: Detection result of test compound at low dose (0.4 μM) (prostacyclin (PGI2)): 248.71 ± 19.98 pg/mL
- expression of prostacyclin in endothelial cells: Detection result of test compound at medium dose (2 μM) (prostacyclin (PGI2)): 263.34 ± 15.04 pg/mL
- expression of prostacyclin in endothelial cells: Detection result of test compound at high dose (10 μM) (prostacyclin (PGI2)): 241.51 ± 16.58 pg/mL
- expression of endothelin in endothelial cells: Detection result of test compound at low dose (0.4 μM) (endothelin (ET-1)): 263.55 ± 0.12 pg/mL
- expression of endothelin in endothelial cells: Detection result of test compound at medium dose (2 μM) (endothelin (ET-1)): 285.24 ± 13.22 pg/mL
- expression of endothelin in endothelial cells: Detection result of test compound at high dose (10 μM) (endothelin (ET-1)): 238.19 ± 19.65 pg/mL

Compound: COc1ncc(F)c2c(S(=O)(=O)N3CCCNC[C@H]3C)cccc12 [Compound R-YK1605, (R)-4-fluoro-1-methoxy-5-((2-methyl-1,4-diazacycloheptan-1-yl)sulfonyl)isoquinoline]
- Cerebral hemorrhage volume score (x ± s) [1]: 12.95 ± 2.04
- expression of prostacyclin in endothelial cells: Detection result of test compound at low dose (0.4 μM) (prostacyclin (PGI2)): 280.07 ± 7.00 pg/mL
- expression of prostacyclin in endothelial cells: Detection result of test compound at medium dose (2 μM) (prostacyclin (PGI2)): 274.72 ± 32.60 pg/mL
- expression of prostacyclin in endothelial cells: Detection result of test compound at high dose (10 μM) (prostacyclin (PGI2)): 246.51 ± 1.44 pg/mL
- expression of endothelin in endothelial cells: Detection result of test compound at low dose (0.4 μM) (endothelin (ET-1)): 231.61 ± 9.70 pg/mL
- expression of endothelin in endothelial cells: Detection result of test compound at medium dose (2 μM) (endothelin (ET-1)): 228.98 ± 11.41 pg/mL
- expression of endothelin in endothelial cells: Detection result of test compound at high dose (10 μM) (endothelin (ET-1)): 259.53 ± 0.75 pg/mL

Compound: CC[C@@H]1CNCCCN1S(=O)(=O)c1cccc2c(OC)nccc12 [Compound R-YK1610, (R)-5-((2-ethyl-1,4-diazacycloheptan-1-yl)sulfonyl)-1-methoxyisoquinoline]
- Cerebral hemorrhage volume score (x ± s) [1]: 12.83 ± 2.05
- expression of prostacyclin in endothelial cells: Detection result of test compound at low dose (0.4 μM) (prostacyclin (PGI2)): 275.40 ± 9.89 pg/mL
- expression of prostacyclin in endothelial cells: Detection result of test compound at medium dose (2 μM) (prostacyclin (PGI2)): 267.35 ± 10.69 pg/mL
- expression of prostacyclin in endothelial cells: Detection result of test compound at high dose (10 μM) (prostacyclin (PGI2)): 253.44 ± 12.48 pg/mL
- expression of endothelin in endothelial cells: Detection result of test compound at low dose (0.4 μM) (endothelin (ET-1)): 259.20 ± 2.21 pg/mL
- expression of endothelin in endothelial cells: Detection result of test compound at medium dose (2 μM) (endothelin (ET-1)): 260.34 ± 7.94 pg/mL
- expression of endothelin in endothelial cells: Detection result of test compound at high dose (10 μM) (endothelin (ET-1)): 238.68 ± 3.34 pg/mL

Compound: CCc1cnc(O)c2cccc(S(=O)(=O)N3CCCNC[C@H]3C)c12 [Compound R-YK1607, (R)-4-ethyl-5-((2-methyl-1,4-diazacycloheptan-1-yl)sulfonyl)isoquinolin-1-ol]
- Cerebral hemorrhage volume score (x ± s) [1]: 12.12 ± 2.06
- expression of prostacyclin in endothelial cells: Detection result of test compound at low dose (0.4 μM) (prostacyclin (PGI2)): 249.20 ± 2.28 pg/mL
- expression of prostacyclin in endothelial cells: Detection result of test compound at medium dose (2 μM) (prostacyclin (PGI2)): 257.34 ± 7.96 pg/mL
- expression of prostacyclin in endothelial cells: Detection result of test compound at high dose (10 μM) (prostacyclin (PGI2)): 241.68 ± 3.34 pg/mL
- expression of endothelin in endothelial cells: Detection result of test compound at low dose (0.4 μM) (endothelin (ET-1)): 248.20 ± 2.28 pg/mL
- expression of endothelin in endothelial cells: Detection result of test compound at medium dose (2 μM) (endothelin (ET-1)): 259.34 ± 7.96 pg/mL
- expression of endothelin in endothelial cells: Detection result of test compound at high dose (10 μM) (endothelin (ET-1)): 237.68 ± 3.34 pg/mL

Compound: O=S(=O)(c1cccc2cnccc12)N1CCCNCC1 [Fasudil hydrochloride, reference compound]
- Cerebral hemorrhage volume score (x ± s) [1]: 10.25 ± 3.24
- expression of prostacyclin in endothelial cells: Detection result of test compound at low dose (0.4 μM) (prostacyclin (PGI2)): 259.07 ± 40.07 pg/mL
- expression of prostacyclin in endothelial cells: Detection result of test compound at medium dose (2 μM) (prostacyclin (PGI2)): 208.85 ± 37.07 pg/mL
- expression of prostacyclin in endothelial cells: Detection result of test compound at high dose (10 μM) (prostacyclin (PGI2)): 184.93 ± 1.09 pg/mL
- effect on the expression of prostacyclin (in words) (prostacyclin (PGI2); low concentration): promoted the expression of prostacyclin
- effect on the expression of prostacyclin (in words) (prostacyclin (PGI2); medium and high concentrations): inhibited the expression
- expression of endothelin in endothelial cells: Detection result of test compound at low dose (0.4 μM) (endothelin (ET-1)): 254.29 ± 3.35 pg/mL
- expression of endothelin in endothelial cells: Detection result of test compound at medium dose (2 μM) (endothelin (ET-1)): 252.58 ± 3.92 pg/mL
- expression of endothelin in endothelial cells: Detection result of test compound at high dose (10 μM) (endothelin (ET-1)): 325.69 ± 9.78 pg/mL
- effect on the expression and secretion of endothelin (in words) (endothelin (ET-1); high, medium and low doses): significantly promote the expression and secretion of endothelin
